# In patent US7118895B2, “Process for producing aglycon by using diglycosidase and flavor-improved food containing the aglycon and converting agent to be used in the process” (Amano Enzyme Inc., priority 2000, dated 2006):
# Test system: Crude diglycosidase
# Test: Examination of substrate concentration in the conversion into isoflavone aglycons by diglycosidase using soybean materials;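 as to Decomposition efficiency: ratio of each glycoside/aglycon within its isoflavone family: percent of the isoflavone family total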
# Assay type: biochemical, Penicillium multicolor IAM7153
# Summary of the method: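 Reaction at 55° C, shaken, pH 4.0 (20 mM acetate), using crude diglycosidase from a 1.88 AU/mL enzyme solution on soy flour, soymilk, defatted soybean or soy protein concentrate at 2, 5, 10, 20 or 30% (w/v). Isoflavone aglycons quantified by HPLC of ethanol extracts at 0, 1, 3, 6 h.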
structure (smiles),measurement,setting,value
"O=C(O)CC(=O)OC[C@H]1O[C@@H](Oc2cc(O)c3c(=O)c(-c4ccc(O)cc4)coc3c2)[C@H](O)[C@@H](O)[C@@H]1O [malonylgenistin, 6″-O-malonylgenistin]",Decomposition efficiency: ratio of each glycoside/aglycon within its isoflavone family,"roasted soy flour, substrate concentration 10%, heat treatment of enzyme no, reaction time 3 h",not detected
same,Decomposition efficiency: ratio of each glycoside/aglycon within its isoflavone family,"roasted soy flour, substrate concentration 10%, heat treatment of enzyme no, reaction time 6 h",not detected
same,Decomposition efficiency: ratio of each glycoside/aglycon within its isoflavone family,"roasted soy flour, substrate concentration 10%, heat treatment of enzyme yes, reaction time 6 h",not detected
same,Decomposition efficiency: ratio of each glycoside/aglycon within its isoflavone family,"roasted soy flour, substrate concentration 20%, heat treatment of enzyme no, reaction time 0 h",not detected
same,Decomposition efficiency: ratio of each glycoside/aglycon within its isoflavone family,"roasted soy flour, substrate concentration 20%, heat treatment of enzyme no, reaction time 1 h",not detected
same,Decomposition efficiency: ratio of each glycoside/aglycon within its isoflavone family,"roasted soy flour, substrate concentration 20%, heat treatment of enzyme no, reaction time 3 h",not detected
same,Decomposition efficiency: ratio of each glycoside/aglycon within its isoflavone family,"roasted soy flour, substrate concentration 20%, heat treatment of enzyme no, reaction time 6 h",not detected
same,Decomposition efficiency: ratio of each glycoside/aglycon within its isoflavone family,"roasted soy flour, substrate concentration 20%, heat treatment of enzyme yes, reaction time 6 h",not detected
same,Decomposition efficiency: ratio of each glycoside/aglycon within its isoflavone family,"roasted soy flour, substrate concentration 30%, heat treatment of enzyme no, reaction time 0 h",not detected
same,Decomposition efficiency: ratio of each glycoside/aglycon within its isoflavone family,"roasted soy flour, substrate concentration 30%, heat treatment of enzyme no, reaction time 1 h",not detected
same,Decomposition efficiency: ratio of each glycoside/aglycon within its isoflavone family,"roasted soy flour, substrate concentration 30%, heat treatment of enzyme no, reaction time 3 h",not detected
same,Decomposition efficiency: ratio of each glycoside/aglycon within its isoflavone family,"roasted soy flour, substrate concentration 30%, heat treatment of enzyme no, reaction time 6 h",not detected
same,Decomposition efficiency: ratio of each glycoside/aglycon within its isoflavone family,"roasted soy flour, substrate concentration 30%, heat treatment of enzyme yes, reaction time 6 h",not detected
same,Decomposition efficiency: ratio of each glycoside/aglycon within its isoflavone family,"soymilk, substrate concentration 2%, heat treatment of enzyme no, reaction time 0 h",35.0%
same,Decomposition efficiency: ratio of each glycoside/aglycon within its isoflavone family,"soymilk, substrate concentration 2%, heat treatment of enzyme no, reaction time 1 h",15.3%
same,Decomposition efficiency: ratio of each glycoside/aglycon within its isoflavone family,"soymilk, substrate concentration 2%, heat treatment of enzyme no, reaction time 3 h",3.5%
same,Decomposition efficiency: ratio of each glycoside/aglycon within its isoflavone family,"soymilk, substrate concentration 2%, heat treatment of enzyme no, reaction time 6 h",0.0%
same,Decomposition efficiency: ratio of each glycoside/aglycon within its isoflavone family,"soymilk, substrate concentration 2%, heat treatment of enzyme yes, reaction time 6 h",49.5%
same,Decomposition efficiency: ratio of each glycoside/aglycon within its isoflavone family,"soymilk, substrate concentration 5%, heat treatment of enzyme no, reaction time 0 h",58.2%
same,Decomposition efficiency: ratio of each glycoside/aglycon within its isoflavone family,"soymilk, substrate concentration 5%, heat treatment of enzyme no, reaction time 1 h",24.9%
same,Decomposition efficiency: ratio of each glycoside/aglycon within its isoflavone family,"soymilk, substrate concentration 5%, heat treatment of enzyme no, reaction time 3 h",6.9%
same,Decomposition efficiency: ratio of each glycoside/aglycon within its isoflavone family,"soymilk, substrate concentration 5%, heat treatment of enzyme no, reaction time 6 h",2.1%
same,Decomposition efficiency: ratio of each glycoside/aglycon within its isoflavone family,"soymilk, substrate concentration 5%, heat treatment of enzyme yes, reaction time 6 h",52.5%
same,Decomposition efficiency: ratio of each glycoside/aglycon within its isoflavone family,"soymilk, substrate concentration 10%, heat treatment of enzyme no, reaction time 0 h",56.5%
same,Decomposition efficiency: ratio of each glycoside/aglycon within its isoflavone family,"soymilk, substrate concentration 10%, heat treatment of enzyme no, reaction time 1 h",31.5%
same,Decomposition efficiency: ratio of each glycoside/aglycon within its isoflavone family,"soymilk, substrate concentration 10%, heat treatment of enzyme no, reaction time 3 h",11.9%
same,Decomposition efficiency: ratio of each glycoside/aglycon within its isoflavone family,"soymilk, substrate concentration 10%, heat treatment of enzyme no, reaction time 6 h",4.8%
same,Decomposition efficiency: ratio of each glycoside/aglycon within its isoflavone family,"soymilk, substrate concentration 10%, heat treatment of enzyme yes, reaction time 6 h",51.2%
same,Decomposition efficiency: ratio of each glycoside/aglycon within its isoflavone family,"soymilk, substrate concentration 20%, heat treatment of enzyme no, reaction time 0 h",56.3%
same,Decomposition efficiency: ratio of each glycoside/aglycon within its isoflavone family,"soymilk, substrate concentration 20%, heat treatment of enzyme no, reaction time 1 h",37.6%
same,Decomposition efficiency: ratio of each glycoside/aglycon within its isoflavone family,"soymilk, substrate concentration 20%, heat treatment of enzyme no, reaction time 3 h",15.7%
same,Decomposition efficiency: ratio of each glycoside/aglycon within its isoflavone family,"soymilk, substrate concentration 20%, heat treatment of enzyme no, reaction time 6 h",10.7%
same,Decomposition efficiency: ratio of each glycoside/aglycon within its isoflavone family,"soymilk, substrate concentration 20%, heat treatment of enzyme yes, reaction time 6 h",51.0%
same,Decomposition efficiency: ratio of each glycoside/aglycon within its isoflavone family,"soymilk, substrate concentration 30%, heat treatment of enzyme no, reaction time 0 h",55.9%
same,Decomposition efficiency: ratio of each glycoside/aglycon within its isoflavone family,"soymilk, substrate concentration 30%, heat treatment of enzyme no, reaction time 1 h",42.5%
same,Decomposition efficiency: ratio of each glycoside/aglycon within its isoflavone family,"soymilk, substrate concentration 30%, heat treatment of enzyme no, reaction time 3 h",25.4%
same,Decomposition efficiency: ratio of each glycoside/aglycon within its isoflavone family,"soymilk, substrate concentration 30%, heat treatment of enzyme no, reaction time 6 h",17.1%
same,Decomposition efficiency: ratio of each glycoside/aglycon within its isoflavone family,"soymilk, substrate concentration 30%, heat treatment of enzyme yes, reaction time 6 h",50.0%
same,Decomposition efficiency of genistin family in defatted soybean,"substrate concentration 2%, heat treatment of enzyme no, reaction time 0 h",45.4
same,Decomposition efficiency of genistin family in defatted soybean,"substrate concentration 2%, heat treatment of enzyme no, reaction time 1 h",31.4
same,Decomposition efficiency of genistin family in defatted soybean,"substrate concentration 2%, heat treatment of enzyme no, reaction time 3 h",17.0
same,Decomposition efficiency of genistin family in defatted soybean,"substrate concentration 2%, heat treatment of enzyme no, reaction time 6 h",11.4
same,Decomposition efficiency of genistin family in defatted soybean,"substrate concentration 2%, heat treatment of enzyme yes, reaction time 6 h",41.8
same,Decomposition efficiency of genistin family in defatted soybean,"substrate concentration 5%, heat treatment of enzyme no, reaction time 0 h",43.9
same,Decomposition efficiency of genistin family in defatted soybean,"substrate concentration 5%, heat treatment of enzyme no, reaction time 1 h",38.0
same,Decomposition efficiency of genistin family in defatted soybean,"substrate concentration 5%, heat treatment of enzyme no, reaction time 3 h",29.6
same,Decomposition efficiency of genistin family in defatted soybean,"substrate concentration 5%, heat treatment of enzyme no, reaction time 6 h",19.0
same,Decomposition efficiency of genistin family in defatted soybean,"substrate concentration 5%, heat treatment of enzyme yes, reaction time 6 h",41.1
same,Decomposition efficiency of genistin family in defatted soybean,"substrate concentration 10%, heat treatment of enzyme no, reaction time 0 h",41.6
same,Decomposition efficiency of genistin family in defatted soybean,"substrate concentration 10%, heat treatment of enzyme no, reaction time 1 h",41.5
same,Decomposition efficiency of genistin family in defatted soybean,"substrate concentration 10%, heat treatment of enzyme no, reaction time 3 h",35.1
same,Decomposition efficiency of genistin family in defatted soybean,"substrate concentration 10%, heat treatment of enzyme no, reaction time 6 h",29.1
same,Decomposition efficiency of genistin family in defatted soybean,"substrate concentration 10%, heat treatment of enzyme yes, reaction time 6 h",39.4
